In US10548994B1, “Control of chronic neuropathic pain and allodynia” (STC.UNM, priority 2013, dated 2020):
Entries after “also recorded” stand apart in the source; their conditions may differ.

What was measured:
[1] = system: leukocytes; conditions: prior work; cited from earlier work
[2] = system: RAW 264.7 macrophage cells; assay: LPS-induced NO production in RAW 264.7 macrophage cells; format: cell-based, mouse; conditions: NorBIRT 500 ng/ml pre-treatment 1, 2, 4 h; LPS 500 ng/ml 24 h
Experimental: The ability of NorBIRT to inhibit LPS-induced NO production in RAW 264.7macrophage cells was tested. Cells were pre-treated with NorBIRT (500 ng/ml) for 1, 2, and 4 h then exposed to LPS (500 ng/ml) for 24 h.

[3] = system: TNF-α; assay: TNF-α protein (ELISA) in LPS stimulated RAW 264.7 cells; format: cell-based, mouse; conditions: NorBIRT 500 ng/ml 1 h, LPS 500 ng/ml 4 and 24 h
Experimental: In this experiment, cells were incubated with NorBIRT (500 ng/ml; 1 h) and after treatment with LPS (500 ng/ml; 4 and 24 h) the protein levels of TNF-α was evaluated by ELISA.

[4] = system: IL-1β; assay: IL-1β (ELISA) in supernatants and cell lysates of LPS-stimulated RAW 264.7 cells; format: cell-based, mouse; conditions: NorBIRT 500 ng/ml pretreatment, LPS 500 ng/ml
Experimental: Additionally, RAW 264.7 cells were pretreated with 500 ng/ml of NorBIRT and were stimulated with LPS (500 ng/ml). The levels of IL-1β were measured by ELISA, (A) supernatants and (B) celllysates. […] FIG. 22 illustrates that NorBIRT inhibits LPS-stimulated expression of IL-1β in RAW 264.7 cells.
(§1) Given the intriguing profile of NorBIRT's actions on reversing allodynia, we examined whether NorBIRT additionally altered proinflammatory cytokine levels. […] Intracellular IL-1b requires enzymatic cleavage to produce the mature released form. […] Thus NorBIRT is blocking the release of mature IL-1b. […] So, NorBIRT may additionally have anti-inflammatory properties.

[5] = system: IL-10; assay: IL-10 protein (ELISA) in LPS-stimulated RAW 264.7 cells; format: cell-based, mouse; conditions: co-incubation with NorBIRT and LPS 500 ng/ml
Experimental: Protein levels of Il-10 were evaluated using ELISA.
as §1

[6] = system: CCL2; assay: LPS-stimulated CCL2 production in RAW 264.7 cells; format: cell-based, mouse; conditions: NorBIRT 500 ng/ml 1 h; LPS 500 ng/ml 24 h; supernatants and cell lysates
Experimental: RAW 264.7 cells were also pretreated with NorBIRT (500 ng/ml) for 1 h before being incubated with LPS (500 ng/ml) for 24 h. The culture supernatant was analyzed for CCL2 production in both, supernatants and celllysates.

[7] = system: LFA-1; assay: LPS-stimulated LFA-1 protein expression (ELISA, cell lysates) in RAW 264.7 cells; format: cell-based, mouse; conditions: NorBIRT 500 ng/ml 2 and 4 h, LPS 500 ng/ml 24 h
Experimental: Further, RAW 264.7 cells were pretreated with NorBIRT (500 ng/ml) for 2 and 4 h before being incubated with LPS (500 ng/ml). After 24 h of incubation, LFA-1 was measured in celllysates by ELISA.

[8] = system: RAW 264.7 cells; assay: Mouse macrophage cell migration in response to CCL2; format: cell-based; conditions: recombinant mouse CCL2 (2D-100 ng/ml)
Experimental: Mouse macrophages cell migration in response to CCL2 was assessed with recombinant mouse CCL2 (2D-100 ng/ml) in RAW 264.7 cells. Latrunculin was used as a positive control to inhibit cell migration.

[9] = system: RAW 264.7 cells; assay: WST-1 cytotoxicity/viability assay; format: cell-based, mouse; conditions: 50, 100, SOO, and 1000 ng/ml, 24 h
Experimental: RAW 264.7 cells were treated with NorBIRT for the indicated concentrations (50, 100, SOO, and 1000 ng/ml) for 24 h. Cytotoxicity was analyzed using an WST-1 assay. The WST-1 conversion assay was based on the mitochondrial function of intact cells.

[10] = system: rats with sciatic nerve chronic constriction injury (CCI); assay: Sciatic nerve chronic constriction injury (CCI) allodynia, von Frey test; format: in vivo, rat; conditions: for reversal of CCI-induced mechanical allodynia: 10 days after CCI
Text: Glial (astrocytes, microglia, satellite & Schwann) cells are recognized as contributing to the development and maintenance of neuropathic pain [86]. Glia are well-known to serve a number of housekeeping functions for healthy neuronal communication. […] Glia have receptors for and are activated by invading pathogens, neuropeptides and neurotransmitters. Once activated, glia can contribute to persistent pathological pain by responding to and releasing factors that act on both neurons and surrounding glia. Classic immune signals include the pro-inflammatory cytokines, interleukin-1 (IL-1β) and tumor necrosis factor-alpha (TNF-α), and chemokines such as CCL2 [139, 142]. Chronic constriction injury (CCI) is a well-characterized animal model that involves both inflammation and trauma around one sciatic nerve. Loose sciatic nerve ligation of 4 sutures produces allodynia in hind paws of rodents. Allodynia in rodents is often measured by hind paw responses to low threshold mechanical stimuli (von Frey test). Clinically, allodynia is well-documented as a common problem for neuropathic pain patients, and the von Frey test is a highly validated assessment tool for allodynia. Several gene therapy vector approaches for neuropathic pain control are being pursued for directed delivery to the dorsal spinal cord & DRG (the pain compartments) & to specific cell types within those compartments, such as glial cells in the DRG (satellite & Schwann cells) or astrocytes and microglia in the dorsal horn of the spinal cord, with one recent clinical trial underway.
We sought to identify the best vector system, either of the viral-based adeno-associated virus (AAV) or the non-viral DNA-based vector (plasmid DNA; pDNA), to achieve therapeutic pain control when delivered to the spinal subarachnoid space (IT). […] While successful, the viral vectors were short-lived in their effects when one considers clinical neuropathic pain control. […] While continued progress toward designing improved viral vector systems may be worthy of future exploration, the optimal vector identified for long-duration pain control during the current grant period was determined to be free pDNA encoding the IL-10 gene (FIG. 2). Behavioral pain assessment is conducted as previously described. Briefly, rats are placed in a quite, dimly lit room and allowed to habituate to the testing environment for 4 consecutive days, 1 hr/day. Baseline (BL) responses are assessed with a series of graded calibrated filaments (0.4 g-15.0 g) applied to the plantar surface of the hindpaws for 6 sec, which elicits a reliable paw withdrawal response. The pDNA-based vector used in data described here and in ‘Preliminary Data’ contains inverted terminal repeat (ITRs) palindromic nucleotide sequences that are residual components from the original AAV vector and provide additional promoter activity, albeit, somewhat weak.. Therefore ITRs would only serve to augment the transcription driven by the expression cassette. The transcriptional cassette contains the cytomegalovirus enhancer/chicken b-actin promoter (CB-actin promoter), an intronic region, the rat IL-10 gene with a spontaneous point mutation (F129S) and the SV40 polyadenylation signal region.
The animal models used in the experiments of this example extend to the well characterized & widely used model of peripheral neuropathy—sciatic nerve chronic constriction injury which combines both direct trauma plus inflammation to the sciatic nerve. When the peripheral nerves become unhealthy, neuropathic pain often ensues. This model combines both inflammation from loosely tied chromic gut ligatures that leads to a localized inflammation followed by slight constriction. In this model, spinal cord glia are activated, PICs are produced and blocking the actions of glia & PICs prevents and reverses neuropathic pain.
This stimulus elicits a paw withdrawal response. Under normal conditions, rats respond to about 10 g of pressure. […]

[11] = system: 111In-leukocytes in lumbosacral spinal canal of CCI rats; assay: SPECT/CT imaging of 111In-labeled leukocyte accumulation in lumbosacral spinal canal; format: in vivo, rat; conditions: NorBIRT injected vs saline
Text: Initially, we determined that peripheral leukocytes accumulate in spinal regions that are necessary for pain signaling. We used a small animal SPECT/CT imaging system (single-photon emission computerized tomography) which was very similar to PET imaging, but which had better resolution. […] Blocking spinal leukocyte accumulation may be a novel therapeutic target promising for future clinical applications.
We next investigated whether peripheral immune cells in addition to spinal glia could participate in ongoing pain changes. First, it was determined whether leukocytes could extravasate into the lumbosacral region during ongoing neuropathy. Peritoneal leukocytes from same-strain donor rats were collected and labeled with a gamma-emitting radio-isotope […] and injected i.v. into either CCI or sham treated rats. Biodistributions were examined using a small animal SPECT/.
We quantified radioactivity—in uCis—in very discrete spinal regions of interest related to incoming sciatic pain information. We determined discrete differences in the levels of uCi activity within specific Lumbar vertebra and from the underlying L4-L6 spinal canal, even the associated intervertebral disc regions. We analyzed the L4-L6 spinal canal

[12] = system: rats with sciatic nerve chronic constriction injury (CCI); conditions: IT IL-10 protein 4 hr prior to IT pDNA-IL10; cited from earlier work
[13] = system: innate immune cells (macrophage, dendritic cells); conditions: IT IL-10 protein 4 hr prior to IT pDNA-IL10; cited from earlier work
[14] = i.t. 10-fold higher dose of NorBIRT (Example 10)

For `CN1C(=O)N(c2cc(Cl)cc(Cl)c2)C(=O)[C@@]1(C)Cc1ccc(Br)cc1` [BIRT-377, reference compound], the “antiproliferative and anti-migratory properties of leukocytes” value [1] is given as “exert antiproliferative and anti-migratory properties”.

With `C[C@@]1(Cc2ccc(Br)cc2)C(=O)N(c2cc(Cl)cc(Cl)c2)C(=O)N1CCCCCN` [NorBIRT] the “LPS-induced NO production” value [2] was “inhibits”, the “expression (protein levels) of TNF-α” value [3] was “attenuates” and the “IL-1β release / LPS-stimulated expression (supernatants)” value [4] was “reduced; also recorded: attenuated; also recorded: inhibits”. For the same molecule, the “intracellular IL-1β (cell lysates)” value [4] was “substantially increased”, the “IL-10 protein levels / release” value [5] was “increases; also recorded: dose-dependently increased” and the “LPS-stimulated CCL2 production” value [6] was “does not inhibit”. The “LPS-stimulated LFA-1 protein expression” value [7] was “inhibits”, the “macrophage cell migration in response to CCL2” value [8] was “inhibits” and the “viability of RAW 264.7 cells” value [9] was “does not affect”. The change in allodynia ([10]; 500 ng i.v. NorBIRT vs saline, 48 and 72 hrs later) was “significant change; also recorded: reverses”, the allodynia fully returned ([10]; after i.t. NorBIRT (Example 11)) was no more than 10 days and the “reversal of 45-day enduring allodynia” value ([10]; higher dose i.t. NorBIRT on day 45) was “substantially reversed”. For the same molecule, the reversal of allodynia ([10]; i.t. 5 ng NorBIRT vs saline (Example 10)) was “very modestly reversed”, the return of allodynia [10, 14] was no more than 9 days and the reversal of allodynia [10, 14] was “substantial reversal”. For the same molecule, the “reversal of 10-day CCI-induced bilateral mechanical allodynia” value ([10]; i.t. NorBIRT vs i.t. vehicle (Example 11)) was “reversed”, the “time of peak effect after injection” value ([10]; i.t. NorBIRT, compared to sham controls) was “four” and the effect on allodynia ([10]; i.t. higher dose 100 ng vs vehicle (Example 11)) was “dramatic reversal”. The effect on allodynia ([10]; i.t. low dose 5 ng vs vehicle (Example 11)) was “lacking effects”, the effect on allodynia ([10]; i.v. 5000 ng) was “attenuated allodynia bilaterally” and the effect on allodynia ([10]; i.v. 100 000 ng) was “attenuated allodynia bilaterally”. The “dose-dependent reversal from allodynia” value ([10]; i.v. low dose, 5 days after injection, vs saline) was “did not produce”, the “reversal of CCI-induced mechanical allodynia” value ([10]; i.v. low dose, second experiment) was “did not reverse” and the “dose-dependent reversal from allodynia” value ([10]; i.v. low dose, throughout 8 days after injection, vs Sham) was “does not produce”. The “reversal of CCI-induced mechanical allodynia” value ([10]; i.v., relatively high doses, first experiment) was “reverses”, the “leukocyte accumulation (uCi signal) in lumbosacral spinal canal” value [11] was “no signal” and the “antiproliferative and anti-migratory properties of leukocytes” value [1] was “exert antiproliferative and anti-migratory properties”.

With “IL-1 receptor antagonist: blocks spinal cord actions of IL1; drug with short half-life” the “time of return of allodynia” value ([10]; intrathecal IL-1 receptor antagonist) was no more than 24 h and the effect on allodynia ([10]; intrathecal, after CCI) was “completely abolishes”.

B1: IL-10 protein: IT IL-10 protein (without transgene) (protein, UniProt P22301 19-178, looked up)
Interleukin-10: SPGQGTQSENSCTHFPGNLPNMLRDLRDAFSRVKTFFQMKDQLDNLLLKESLLEDFKGYLGCQALSEMIQFYLEEVMPQAENQDPDIKAHVNSLGENLKTLRLRLRRCHRFLPCENKSKAVEQVKNAFNKLQEKGIYKAMSEFDIFINYIEAYMTMKIRN
In the case of B1, the “long duration pain relief after IT pDNA-IL-10” value [12] is given as “prevented” and the “cellular enrichment in surrounding CSF after IT pDNA-IL10” value [13] is given as “prevented”.
